Experiment: Test Example 2: persistence of Compound B concentration in mouse lung tissue (14C-labelled compounds)
Type: in vivo
Conditions: Balb/C mice (female), up to 72 h
[1] = intranasal 14C-labelled Compound A 0.3 and 1 μmol/kg

| SMILES | conversion of Compound A (ester derivative) to Compound B (active form) [1] | persistence of Compound B (active form) concentration in lung tissue after administration of Compound A [1] | disappearance of Compound B from lung tissue (intranasal 14C-labelled Compound B 4 μmol/kg) |
| --- | --- | --- | --- |
| CCCCCCCC(=O)OC[C@@H](O)[C@@H](OC)[C@@H]1OC(C(=O)O)=C[C@H](NC(=N)N)[C@H]1NC(C)=O [化合物A, 5-アセタミド-4-グアニジノ-9-O-オクタノイル-2、3、4、5-テトラデオキシ-7-メトキシ-D-グリセロ-D-ガラクト-ノン-2-エノピラソン酸] | 速やかに変換される | 長期にわたり持続した | – |
| CO[C@@H]([C@@H]1OC(C(=O)O)=C[C@H](NC(=N)N)[C@H]1NC(C)=O)[C@H](O)CO [化合物B, 5-アセタミド-4-グアニジノ-2、3、4、5-テトラデオキシ-7-メトキシ-D-グリセロ-D-ガラクト-ノン-2-エノピラソン酸, reference compound] | – | – | 速やかに肺組織から消失した |
